Assay results reported in PMC11094580 (EFSA Journal, 2024).
Read-outs that look alike come from different tables or passages of the source.

Legend:
Wistar rats [1] = assay: In vivo comet assay in liver and duodenum; design: species or system rat; details: positive control 200 mg/kg bw
[2] = test system: Intestinal bacteria isolated from human faeces; details: 5 mg flavonoids in 50 mL broth, 2 days, anaerobic; ref Kim et al. (1998); cited from earlier work
Clostridium orbiscindens = details: ref Schoefer et al. (2003); cited from earlier work
Wistar rats [3] = assay: In vivo micronucleus assay in peripheral blood; design: species or system rat; details: positive control, 10 mg/kg bw, 48 h before sacrifice
[4] = ref Gardana et al. (2007), cited from earlier work

In the case of CCOS(C)(=O)=O [EMS, ethyl methanesulfonate], the “% tail intensity” value (Wistar rats [1]; duodenum) was 19.67% and the “% tail intensity” value (Wistar rats [1]; liver) was 18.30%.
For C[C@@H]1O[C@@H](O[C@H]2[C@H](Oc3cc(O)c4c(c3)O[C@H](c3ccc(O)cc3)CC4=O)O[C@H](CO)[C@@H](O)[C@@H]2O)[C@H](O)[C@H](O)[C@H]1O [naringin, reference compound], the “Results: bacterial metabolism” value [2] is listed as “metabolised to naringenin at early time” and the “Results: conversion by C. orbiscindens” value (Clostridium orbiscindens) is listed as “did not convert”.
In the case of O=P1(N(CCCl)CCCl)NCCCO1 (stereo not shown) [CPA, cyclophosphamide, reference compound], the “% MNPCE frequency” value (Wistar rats [3]) was 0.93 ± 0.16%.
For COc1ccc([C@@H]2CC(=O)c3c(O)cc(O)cc3O2)cc1O [hesperetin, reference compound], the “mean C max (plasma hesperetin)” value ([4]; BOJ 150 mL, 51 mg hesperetin) is listed as 43 ng/mL and the “mean C max (plasma hesperetin)” value ([4]; BOJ 300 mL, 102 mg hesperetin) is listed as 80 ng/mL.
